According to patent US20250197356A1, “METHOD FOR SYNTHESIZING NUCIFERINE OR DERIVATIVE THEREOF, DERIVATIVE OF NUCIFERINE AND USE THEREOF” (HUAQIAO UNIVERSITY, priority 2022, published 2025):
Read-outs that look alike come from different tables or passages of the source.

Tests used:
[1] = cited from earlier work
hyperlipidemia rats [2] = assay: Liver and kidney indexes in high-fat diet hyperlipidemia rats; format: in vivo, SD rats; conditions: 20 mg/(kg d) by gastric gavage, 4 weeks, x ± s, n = 9
From the text: (§1) Animals: 54 SPF-grade SD rats, weighing 120±10 g, provided by Laboratory Animal Business Department, Shanghai Family Planning Research Institute, China, Animal license number: SCXK(Shanghai)2018-0006.
(§2) Modeling scheme: 54 adult rats of 120±10 g were selected and fed adaptively for three days. They were then randomly divided to 6 groups, 9 animals for each group. They were blank control group, model group, positive control group, nuciferine group, and nuciferine structural modification group. The blank control group was fed with normal diet. […] The feeding and modeling time was 5 weeks.
(§3) Liver tissue sample collection: the rats were killed by dislocation, and the liver was taken out immediately after death, which was observed by naked eye to find out whether there was abnormal color and lesions, and was then rinsed with ice normal saline. The left lobe of the liver was quickly cut into small pieces and fixed in 10% formaldehyde overnight for sectioning. The tissue of the right lobe of the liver was quickly wrapped in tin box and stored at −80° C. for later use.

hyperlipidemia rats [3] = assay: Serum biochemical indicators in high-fat diet hyperlipidemia rats; format: in vivo, SD rats; conditions: serum, 20 mg/(kg d) by gastric gavage, 4 weeks; for ALT (U/L) / AST (U/L) / Bun / Cr: x ± s, n = 9
From the text: as §1
(§4) Drug to be tested: Nuciferine purchased from Shanghai Aladdin Biochemical Technology Co., Ltd., China, and its derivatives (purity >99%) that were synthesized in the laboratory by the methods of Examples 2-7.
(§5) Other reagents: AST, ALT, TC, TG, NEFA, Bun, Cr, CAT, GSH-Px, GSH, MDA test kits, purchased from Nanjing Jiancheng Bioengineering Institute, China; HL and PL test kits, purchased from Jianglai Biotechnology Co., Ltd., China; experimental reagents such as anhydrous ethanol, xylene, isopropanol neutral gum, purchased from Sinopharm Chemical Reagent Co., Ltd., China; HE dye solution, DAB color development agent, and oil red O dye solution, purchased from KeyGEN Biotechnology Co., Ltd, China; Antibodies IL-6 and TNF-α, purchased from Abcam Limited.
as §2, with “weeks. Within 4 weeks after modeling, continuous administration was performed: the blank control group and model group were given 0.2 mL of distilled water by gastric gavage; the positive control group was administrated 20 mg/(kg d) of simvastatin; while the treatment group was administrated 20 mg/(kg d) of nuciferine or 20 mg/(kg d) of a derivative of nuciferine (compounds 6a-6f).” for “weeks.”
Blood sample collection: 24 h after the last gastric gavage administration, eyeballs were taken out and blood was drawn. Whole blood was collected in an EP tube, and centrifuged at 3000 r/min and 4° C. for 10 min, and the supernatant was collected and stored at −20° C. for blood biochemical indicator test.
(§6) Biochemical indicator determination: indicators AST, ALT, TC, TG, NEFA, Bun, Cr, CAT, GSH-Px, GSH, MDA, HL, PL were determined according to the instructions of the kits.

hyperlipidemia rats [4] = assay: Liver tissue homogenate biochemical indicators in high-fat diet hyperlipidemia rats; format: in vivo, SD rats; conditions: liver tissue, 20 mg/(kg d) by gastric gavage, 4 weeks, x ± s, n = 9
From the text: as §1, §4, §5
as §2, with “weeks. Within 4 weeks after modeling, continuous administration was performed: the blank control group and model group were given 0.2 mL of distilled water by gastric gavage; the positive control group was administrated 20 mg/(kg d) of simvastatin; while the treatment group was administrated 20 mg/(kg d) of nuciferine or 20 mg/(kg d) of a derivative of nuciferine (compounds 6a-6f).” for “weeks.”
as §3
Preparation of 10% liver homogenate: the liver wrapped in tin box and stored in the ultra-low temperature freezer at −80° C. was taken out, and quickly placed on an ice box. 0.2 g of liver tissue was accurately taken, and ice normal saline with a volume 9 times that of the liver issue was added thereto. 10% tissue homogenate was formed by grounding and mixing, and then centrifuged at 3000 r/min and 4° C. for 10 min. The supernatant was collected for later use.
as §6

[5] = TCMSP database, screening threshold OB ≥30%

| Compound | OB/% (oral bioavailability) [1, 5] | Kidney index (%) (hyperlipidemia rats [2]) | Liver index (%) (hyperlipidemia rats [2]) | LDL-C (hyperlipidemia rats [3]) | TC (hyperlipidemia rats [3]) | TG (hyperlipidemia rats [3]) | ALT (U/L) (hyperlipidemia rats [3]) | AST (U/L) (hyperlipidemia rats [3]) | Bun (hyperlipidemia rats [3]) | Cr (hyperlipidemia rats [3]) | CAT (U/mgprot) (hyperlipidemia rats [4]) | GSH (μmol/gprot) (hyperlipidemia rats [4]) | GSH-Px (U/mgprot) (hyperlipidemia rats [4]) | HL (U/mgprot) (hyperlipidemia rats [4]) | LPL (U/mgprot) (hyperlipidemia rats [4]) | MDA (nmol/mgprot) (hyperlipidemia rats [4]) | NEFA (μmol/g prot) (hyperlipidemia rats [4]) | TG (mmol/g prot) (hyperlipidemia rats [4]) | other results |
| --- | --- | --- | --- | --- | --- | --- | --- | --- | --- | --- | --- | --- | --- | --- | --- | --- | --- | --- | --- |
| COc1cc2c(cc1OC)C(Cc1ccc(O)cc1)N(C)CC2 (stereo not drawn) [Armepavine] | 69.31% | – | – | – | – | – | – | – | – | – | – | – | – | – | – | – | – | – | – |
| COc1cc2c3c(c1OC)-c1ccccc1CC3N(C(=O)c1ccc(C)cc1)CC2 (stereo not drawn) [Compound 6c, p-Methylbenzoylnuciferine] | – | 0.68 ± 0.03 % | 4.58 ± 0.26 % | 0.54 ± 0.08 mmol/L | 1.93 ± 0.16 mmol/L | 0.56 ± 0.07 mmol/L | 16.44 ± 8.69 U/L | 7.86 ± 2.24 U/L | 3.45 ± 0.51 mmol/L | 51.39 ± 5.83 µmol/L | 27.43 ± 3.14 U/mgprot | 374.63 ± 137.14 μmol/gprot | 567.63 ± 51.57 U/mgprot | 0.44 ± 0.78 U/mgprot | 0.50 ± 0.07 U/mgprot | 0.94 ± 0.38 nmol/mgprot | 107.69 ± 6.44 μmol/g prot | 0.10 ± 0.02 mmol/g prot | – |
| Oc1cc(O)c2c(c1)O[C@@H](c1cc(O)c(O)c(O)c1)[C@@H](O)[C@@H]2O [leucodelphinidin] | 30.02% | – | – | – | – | – | – | – | – | – | – | – | – | – | – | – | – | – | – |
| COc1cc2c3c(c1OC)-c1ccccc1CC3N(C(=O)c1ccccc1C)CC2 (stereo not drawn) [Compound 6d, o-Methylbenzoylnuciferine] | – | 0.68 ± 0.04 % | 4.58 ± 0.24 % | 0.68 ± 0.15 mmol/L | 2.03 ± 0.09 mmol/L | 0.57 ± 0.07 mmol/L | 15.62 ± 9.43 U/L | 7.78 ± 2.27 U/L | 3.56 ± 0.19 mmol/L | 53.82 ± 6.13 µmol/L | 25.78 ± 2.67 U/mgprot | 360.02 ± 43.63 μmol/gprot | 562.93 ± 68.91 U/mgprot | 0.37 ± 0.08 U/mgprot | 0.42 ± 0.06 U/mgprot | 0.95 ± 0.48 nmol/mgprot | 106.32 ± 22.95 μmol/g prot | 0.13 ± 0.02 mmol/g prot | – |
| (−)-catechin | – | – | – | – | – | – | – | – | – | – | – | – | – | – | – | – | – | – | OB/% (oral bioavailability) ([1]; po): 49.68% |
| CN1CCc2cc(O)c(O)cc2[C@@H]1Cc1ccc(O)cc1 [(1S)-1-(4-hydroxybenzyl)-2-methyl-3,4-dihydro-1H-isoquinoline-6,7-diol] | 67.14% | – | – | – | – | – | – | – | – | – | – | – | – | – | – | – | – | – | – |
| COc1cc2c3c(c1OC)-c1ccccc1CC3N(C(C)=O)CC2 (stereo not drawn) [Compound 6f, Acetylnuciferine] | – | 0.68 ± 0.03 % | 4.58 ± 0.25 % | 0.69 ± 0.16 mmol/L | 2.02 ± 0.16 mmol/L | 0.58 ± 0.07 mmol/L | 16.73 ± 9.74 U/L | 7.74 ± 2.22 U/L | 3.62 ± 0.15 mmol/L | 52.82 ± 4.36 µmol/L | 27.42 ± 2.82 U/mgprot | 361.04 ± 43.65 μmol/gprot | 560.90 ± 62.45 U/mgprot | 0.56 ± 0.06 U/mgprot | 0.26 ± 0.08 U/mgprot | 0.98 ± 0.56 nmol/mgprot | 106.32 ± 22.95 μmol/g prot | 0.13 ± 0.02 mmol/g prot | – |
| COc1cc2c(cc1O)C(Cc1ccc(O)cc1)NCC2 (stereo not drawn) [Machiline] | 79.64% | – | – | – | – | – | – | – | – | – | – | – | – | – | – | – | – | – | – |
| CN1CCc2cc3c(c4c2C1Cc1ccccc1-4)OCO3 (stereo not drawn) [Remerin] | 40.75% | – | – | – | – | – | – | – | – | – | – | – | – | – | – | – | – | – | – |
